What was measured:
TXA2 synthase = target: T1, TXA2 synthase (Homo sapiens, UniProt P24557); experiment: test (e): TXA2 synthase inhibition in human platelet microsomal preparation; type: biochemical; settings: [1-^14 C]arachidonic acid
T1 construct: using a human platelet microsomal TXA2 synthase preparation; from tissue; host or cells: human platelet microsomes
T1 sequence (P24557 1-533): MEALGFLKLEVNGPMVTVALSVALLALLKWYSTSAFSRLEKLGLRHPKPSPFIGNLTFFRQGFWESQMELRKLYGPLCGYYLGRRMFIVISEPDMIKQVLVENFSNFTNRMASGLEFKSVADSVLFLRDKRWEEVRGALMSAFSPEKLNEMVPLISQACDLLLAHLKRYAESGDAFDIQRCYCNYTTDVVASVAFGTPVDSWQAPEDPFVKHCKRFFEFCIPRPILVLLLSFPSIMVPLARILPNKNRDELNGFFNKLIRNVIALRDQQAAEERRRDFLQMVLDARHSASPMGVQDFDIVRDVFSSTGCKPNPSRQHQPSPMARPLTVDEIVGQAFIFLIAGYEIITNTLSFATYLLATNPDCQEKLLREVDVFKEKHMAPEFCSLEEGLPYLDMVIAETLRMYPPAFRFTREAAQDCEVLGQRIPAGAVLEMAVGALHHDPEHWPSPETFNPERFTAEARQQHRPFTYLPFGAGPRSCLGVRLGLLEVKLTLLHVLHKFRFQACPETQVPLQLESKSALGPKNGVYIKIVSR

[1] = target: T2, U46619 stimulated platelet aggregation (Homo sapiens, UniProt P21731); experiment: test (b): blood platelet aggregation test, TXA2 antagonism against U46619; type: cell-based; settings: human platelet-rich plasma; agonist U46619; read-out: pA2, test (b) (converted)
T2 construct: aggregating human, citrated, platelet-rich plasma; endogenous in cells; host or cells: human platelets in citrated platelet-rich plasma
T2 sequence (P21731 1-343): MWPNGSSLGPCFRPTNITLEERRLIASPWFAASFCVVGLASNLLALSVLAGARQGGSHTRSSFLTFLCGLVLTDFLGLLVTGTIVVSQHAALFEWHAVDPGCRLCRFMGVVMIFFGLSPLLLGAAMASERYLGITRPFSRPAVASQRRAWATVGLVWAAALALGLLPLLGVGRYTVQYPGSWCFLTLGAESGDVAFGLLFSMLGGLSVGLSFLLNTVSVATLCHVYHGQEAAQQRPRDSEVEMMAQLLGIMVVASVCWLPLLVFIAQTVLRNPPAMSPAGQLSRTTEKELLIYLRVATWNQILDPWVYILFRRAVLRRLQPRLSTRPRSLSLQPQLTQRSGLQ
Description: (b) a blood platelet aggregation test based on that described by Born (Nature, 1962, 194, 927-929) and involving:
(i) aggregating human, citrated, platelet-rich plasma by addition of the TXA2 mimetic agent U46619 so that a dose-response curve is generated;
(ii) generating a dose-response curve for U46619 stimulated platelet aggregation in the presence of increasing amounts of test compound (generally in the range 10^-5 M to 10^-10 M); and
(iii) calculating a pA2 value indicating potency of TXA2 antagonism for the test compound, averaged over several concentrations, from the calculated 50% response value for U46619 aggregation in the presence and absence of test compound; or […]

prostacyclin synthase = target: T3, prostacyclin synthase (Homo sapiens, UniProt Q16647); experiment: test (g): prostacyclin synthase inhibition in cultured human endothelial cells (6-oxoPGF1a radioimmunoassay); type: cell-based
T3 construct: obtaining cultured human endothelial cells from unbilical vein; endogenous in cells; host or cells: cultured human umbilical vein endothelial cells
T3 sequence (Q16647 1-500): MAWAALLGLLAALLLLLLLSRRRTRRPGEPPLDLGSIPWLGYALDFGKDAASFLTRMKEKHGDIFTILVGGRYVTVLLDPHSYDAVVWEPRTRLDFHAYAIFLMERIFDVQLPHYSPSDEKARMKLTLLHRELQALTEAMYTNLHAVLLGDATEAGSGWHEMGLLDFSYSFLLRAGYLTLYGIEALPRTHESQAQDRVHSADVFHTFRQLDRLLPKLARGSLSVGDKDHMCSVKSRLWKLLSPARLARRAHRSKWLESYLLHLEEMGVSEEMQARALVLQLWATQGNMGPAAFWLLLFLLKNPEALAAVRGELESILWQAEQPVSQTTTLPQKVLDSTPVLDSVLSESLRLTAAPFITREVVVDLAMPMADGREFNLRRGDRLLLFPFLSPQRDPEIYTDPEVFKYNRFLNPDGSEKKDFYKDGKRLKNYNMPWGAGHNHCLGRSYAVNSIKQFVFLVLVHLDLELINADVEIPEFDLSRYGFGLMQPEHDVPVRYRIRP
Method: The growth medium is aspirated from the wells and the endothelial cell monolayers are washed twice with alquots of medium (1 ml, Earls 199 medium) containing vehicle or compound. The monolayers are first incubated with medium containing vehicle or compound for 30 minutes at 37° C. Arachidonic acid (10 micro M) is added to the medium and the monolayers are incubated for a further 2 hours with a fresh aliquot of medium. The incubation is terminated by aspiration of the medium into indomethacin (1 micro M). The sample is stored at -20° C. and radioimmunoassay for the stable metabolite 6-oxoPGF1a is performed. By comparison of the amount of 6-oxoPGF1a present in a sample incubated in the presence of compound to one incubated in the absence of compound, the prostacyclin synthase inhibitory properties of the compound may be assessed.

- IC50 (TXA2 synthase): 16 nM
- Kb [1]: 7.76 nM
- IC50 (prostacyclin synthase; human endothelial cells from umbilical vein, unit inferred): 211000 nM
Structure (SMILES): Cc1ccc(OC(C)(C)[C@H]2OC[C@@H](C/C=C\CCC(=O)O)[C@@H](c3cncs3)O2)c([N+](=O)[O-])c1 [Example 2]
- prostacyclin inhibitory properties, test (g) (prostacyclin synthase; IC50 greater than 100 micro M deemed no significant inhibition): no significant prostacyclin inhibitory properties

— US5219874A, “Heterocyclic acids” (Imperial Chemical Industries PLC, priority 1991, dated 1993)
